Test results published in patent US8790719B2, “Phytocannabinoids in the treatment of cancer” (GW Pharma Limited, priority 2010, dated 2014).
Where two headings read alike, the source gives them in different places.

What was measured:
[1] = system: LNCaP; experiment: Cell vitality (MTT assay), LNCaP; format: cell-based; conditions: Homo sapiens, read-out: IC50 on cell vitality
Description: (§1) Cells were seeded in presence of FBS in 6 wells multiwell with a density of 8×10^4 cells/well (DU-145) or 1×10^5 cells/well (LNCaP). After 7 hours, cells were starved of dihydrotestosterone (DHT) for 15 hours and treated with increased concentrations of compounds for 24 or 48 hours (absence of serum was maintained during the treatments). Cell viability was assessed by MTT staining.
(§2) Phytocannabinoid BDS and their respective isolated phytocannabinoids were tested in both the hormone-insensitive (DU-145) prostate cancer cells and hormone-sensitive (LNCaP) prostate cancer cells. Three different phytocannabinoids were chosen for this experiment: CBG BDS and isolated compound, CBC BDS and isolated compound and CBD BDS and isolated compound.
(§3) The experiment was repeated in the hormone-insensitive (DU-145) prostate cancer cells and hormone-sensitive (LNCaP) prostate cancer cells that had not been starved of DHT. Here just the CBG BDS and isolated CBG are illustrated in Table 7.2 below.

[2] = system: DU-145; experiment: Cell vitality (MTT assay), DU-145; format: cell-based; conditions: Homo sapiens
Description: as §1, §2, §3

[3] = molecular target: T1, diacylglyceride lipase (DAGL) (Homo sapiens, UniProt Q9Y4D2); experiment: Inhibition of diacylglyceride lipase (DAGL); format: biochemical
T1 sequence (Q9Y4D2 1-1042): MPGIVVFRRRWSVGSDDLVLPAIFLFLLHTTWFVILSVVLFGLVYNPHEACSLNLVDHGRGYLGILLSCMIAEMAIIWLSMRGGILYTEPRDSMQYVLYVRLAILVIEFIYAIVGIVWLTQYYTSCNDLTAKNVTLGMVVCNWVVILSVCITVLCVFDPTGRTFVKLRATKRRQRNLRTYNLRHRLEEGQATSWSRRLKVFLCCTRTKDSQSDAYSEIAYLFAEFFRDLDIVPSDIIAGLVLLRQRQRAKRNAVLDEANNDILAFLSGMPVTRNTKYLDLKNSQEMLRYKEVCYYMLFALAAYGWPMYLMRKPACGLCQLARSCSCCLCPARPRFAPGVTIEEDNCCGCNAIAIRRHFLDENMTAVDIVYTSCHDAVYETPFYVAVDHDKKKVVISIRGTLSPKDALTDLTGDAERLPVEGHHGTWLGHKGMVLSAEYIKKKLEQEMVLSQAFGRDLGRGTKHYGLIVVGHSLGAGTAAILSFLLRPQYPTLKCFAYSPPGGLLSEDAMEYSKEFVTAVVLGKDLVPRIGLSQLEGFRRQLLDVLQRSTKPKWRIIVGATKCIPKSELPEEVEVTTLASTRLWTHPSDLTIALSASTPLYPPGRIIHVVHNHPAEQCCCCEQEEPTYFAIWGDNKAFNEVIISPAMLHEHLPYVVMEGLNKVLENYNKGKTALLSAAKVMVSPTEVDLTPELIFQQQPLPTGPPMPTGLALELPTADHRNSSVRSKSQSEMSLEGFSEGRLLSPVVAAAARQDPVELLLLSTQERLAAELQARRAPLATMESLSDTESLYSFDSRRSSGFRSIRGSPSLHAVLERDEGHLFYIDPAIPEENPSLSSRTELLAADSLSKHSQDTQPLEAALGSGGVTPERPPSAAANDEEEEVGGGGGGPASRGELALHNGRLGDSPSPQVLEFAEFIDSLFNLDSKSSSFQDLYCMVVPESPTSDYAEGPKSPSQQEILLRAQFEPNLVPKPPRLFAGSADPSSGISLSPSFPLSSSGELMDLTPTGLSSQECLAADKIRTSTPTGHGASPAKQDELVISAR
Description: (§4) The effects of the phytocannabinoid BDS THCA, CBN, CBGA, CBDA and CBCV were tested to determine whether they were able to inhibit the MAGL and DAGL enzymes which are able to hydrolyse the endogenous cannabinoid 2-AG to arachidonic acid and glycerol. The results generated from these experiments are detailed in Table 5.1 below.

[4] = molecular target: T2, monoacylglyceride lipase (MAGL) (Homo sapiens, UniProt Q99685); experiment: Inhibition of monoacylglyceride lipase (MAGL); format: biochemical
T2 sequence (Q99685 1-303): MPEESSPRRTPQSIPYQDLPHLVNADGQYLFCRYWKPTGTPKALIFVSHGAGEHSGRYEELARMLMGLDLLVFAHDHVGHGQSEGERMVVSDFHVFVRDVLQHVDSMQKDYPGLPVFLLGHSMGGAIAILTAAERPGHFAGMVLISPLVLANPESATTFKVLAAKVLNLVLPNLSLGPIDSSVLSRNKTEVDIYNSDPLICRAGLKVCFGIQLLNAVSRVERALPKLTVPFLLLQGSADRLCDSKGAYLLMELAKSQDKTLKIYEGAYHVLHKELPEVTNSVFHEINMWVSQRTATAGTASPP
Description: as §4
For this experiment CBG BDS was used as this BDS was the easiest to purify and reconstitute. Four different test articles were used: CBG BDS, isolated CBG, CBG-free CBG BDS and CBG reconstituted BDS, whereby the CBG-free BDS (as prepared in Example 1) was spiked with isolated CBG at the same concentration of CBG as CBG BDS. Table 5.2 below details the data obtained.

[5] = molecular target: T3, GPR55 (Homo sapiens, UniProt Q9Y2T6); experiment: ERK Alphascreen assay using GPR55-HEK cells; format: cell-based
T3 construct: expressed in transfected cells; host or cells: HEK cells (GPR55-HEK)
T3 sequence (Q9Y2T6 whole entry, species assumed): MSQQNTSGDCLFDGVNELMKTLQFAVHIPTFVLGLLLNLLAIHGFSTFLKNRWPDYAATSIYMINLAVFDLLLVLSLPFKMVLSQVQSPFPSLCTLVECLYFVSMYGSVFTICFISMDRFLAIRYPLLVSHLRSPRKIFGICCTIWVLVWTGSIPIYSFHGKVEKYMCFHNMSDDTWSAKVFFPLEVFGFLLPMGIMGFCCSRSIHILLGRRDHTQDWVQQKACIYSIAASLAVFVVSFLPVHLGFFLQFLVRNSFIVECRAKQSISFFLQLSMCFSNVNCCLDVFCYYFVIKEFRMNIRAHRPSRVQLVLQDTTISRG
Source text: An ERK Alphascreen assay was undertaken using GPR55-HEK cells.

[6] = system: MDA-MB-231 breast cancer cell line; experiment: Cell viability of breast cancer cells (Alamar blue assay); format: cell-based; conditions: 72 hours
Description: Cells were seeded in presence of FBS in 6 wells multiwell and treated with increased concentrations of compounds for 72 hours. Cell viability was assessed by Alamar blue staining.
Isolated phytocannabinoids were tested on the MDA-MB-231 breast cancer cell line in order to determine whether phytocannabinoids were effective in other types of cancer other than prostate cancer. The different isolated phytocannabinoids chosen for this experiment were: CBGA, CBDA, CBDV, CBD, THCV and THC.

[7] = system: Glioma cells; experiment: Human glioma cell vitality (MTT assay); format: cell-based; conditions: read-out: IC50 on glioma cell vitality
Description: Cells were seeded in presence of FBS in 6 wells multiwell with a density of 8×10^4 cells/well. Glioma cells were treated with increased concentrations of compounds and cell viability was assessed by MTT staining.
CBD BDS and isolated CBD, CBG and CBDV were tested.

[8] = system: Aberrant crypt focus (ACF), polyps and tumours; experiment: Colon carcinogenesis in the mouse induced by azoxymethane; format: in vivo
Source text: Aberrant crypt focus (ACF), polyps and tumours were induced in the mouse by the carcinogenic substance azoxymethane. The phytocannabinoids were given (i.p.) to the mice three times per week for a period of three months. The COX-2 inhibitor celecoxib was used as a positive control.

[9] = system: hormone-insensitive prostate cancer cell line (DU-145); experiment: Chemioluminescence assay for caspase 3/7 release (apoptosis), DU-145; format: cell-based, human; conditions: high dose (25 μM), FIG. 2
Description: (§5) Two different concentrations of cannabinoids were tested; a low dose (10 μM) and a high dose (25 μM). The chemioluminescence that were recorded for each phytocannabinoid are detailed in FIG. 2.

[10] = system: hormone-sensitive prostate cancer cell line (LNCaP); experiment: Chemioluminescence assay for caspase 3/7 release (apoptosis), LNCaP; format: cell-based, human; conditions: high dose (25 μM), FIG. 2
Description: as §5

[11] = system: human glioma xenograft tumours; experiment: Human glioma xenograft tumour volume; format: in vivo; parameters: unit not given here; conditions: TMZ (100 μM) alone; Table 13.2
Description: The phytocannabinoids were also tested with the TMZ as is detailed in Table 13.2 below.

[12] = system: U87 glioma cells; experiment: Viability of U87 glioma cells (MTT assay), THC, CBD, TMZ alone and combined; format: cell-based, human; conditions: TMZ 100 μM alone, Table 12.2
[13] = system: hormone sensitive LNCaP cells; conditions: 24-48 hours; cited from earlier work
[14] = DU-145, 24 h, read-out: IC50 on cell vitality
[15] = DU-145, 48 h, read-out: IC50 on cell vitality
[16] = read-out: Max concentration tested (% inhibition), DAGL
[17] = at 50 μM, read-out: Max concentration tested (% inhibition), MAGL

CCCCCc1cc(O)c2c(c1)OC(C)(CCC=C(C)C)C=C2 (stereo not drawn) [CBC, Cannabichromene]
IC50 ([1]; 24 h): 10.8 µM | IC50 ([1]; 48 h): 6 µM | IC50 [2, 14]: 7.5 µM | IC50 [2, 15]: 5.6 µM

CCCc1cc(O)c2c(c1)OC(C)(CCC=C(C)C)C=C2 (stereo not drawn) [CBCV]
inhibition at 50 µM [3, 16]: 18.9% | IC50 ([4]; Table 5.1, read-out: MAG IC50): > 50 µM | inhibition at 50 µM [4, 17]: 4.8%

C=C(C)[C@@H]1CCC(C)=C[C@H]1c1c(O)cc(CCCCC)c(C(=O)O)c1O [CBDA, Cannabidiolic acid]
Effect at GPR55 [5]: Antagonist | inhibition at 100 µM ([3]; at 100 μM, read-out: Max concentration tested (% inhibition), DAGL): 91.4% | IC50 ([4]; Table 5.1, read-out: MAG IC50): > 50 µM | inhibition at 50 µM [4, 17]: 18.5% | IC50 ([6]; Homo sapiens): 3.9 µM

C=C(C)[C@@H]1CCC(C)=C[C@H]1c1c(O)cc(CCC)cc1O [CBDV, Cannabidivarin]
Effect at GPR55 [5]: Antagonist | IC50 [7]: 12.4 µM | IC50 ([6]; Homo sapiens): 5 µM

CCCCCc1cc(O)c(C/C=C(\C)CCC=C(C)C)c(O)c1 [CBG, Cannabigerol]
IC50 ([1]; 24 h): 10.8 µM | IC50 ([1]; 48 h): 8.1 µM | IC50 [1]: > 25 µM | protective effect against the experimentally induced colon carcinogenesis ([8]; FIG. 6 a)): most statistically significant results | formation of ACF with 4 or more crypts ([8]; FIG. 6 b)): no ACF with greater than 4 crypts | numbers of tumours per animal ([8]; i.p. three times per week for three months; FIG. 5 c), FIG. 6 c)): no tumours were produced | IC50 [2, 14]: 11.8 µM | IC50 [2, 15]: 5.8 µM | IC50 ([2]; DU-145, read-out: IC50 on cell vitality): > 25 µM | IC50 [7]: 12.4 µM | EC50 ([4]; Table 5.2, BDS vs isolated vs reconstituted): 195 µM | inhibition at 100 µM ([4]; Table 5.2, read-out: Max tested on MAGL % inhibition): 31.5%

CCCCCc1cc(O)c(C/C=C(\C)CCC=C(C)C)c(O)c1C(=O)O [CBGA]
Effect at GPR55 [5]: Inverse agonist | IC50 ([3]; Table 5.1): 30 µM | Max concentration tested (% inhibition), DAGL ([3]; at 100 μM): (67.5%) | IC50 ([4]; Table 5.1, read-out: MAG IC50): > 50 µM | Max concentration tested (% inhibition), MAGL ([4]; at 50 μM): (17.2%) | IC50 [6]: 2.2 µM

CCCc1cc(O)c(C/C=C(\C)CCC=C(C)C)c(O)c1 [CBGV, Cannabigerol propyl variant]
Effect at GPR55 [5]: Antagonist

CCCCCc1cc(O)c2c(c1)OC(C)(C)c1ccc(C)cc1-2 [CBN, Cannabinol]
inhibition at 50 µM [3, 16]: 26.9% | IC50 [4]: > 50 µM | inhibition at 50 µM [4, 17]: 31.5%

CCCCCc1cc2c(c(O)c1C(=O)O)[C@@H]1C=C(C)CC[C@H]1C(C)(C)O2 [THCA, Tetrahydrocannabinolic acid]
inhibition at 50 µM [3, 16]: 79.3% | IC50 [4]: 46 µM | inhibition at 100 µM ([4]; read-out: Max concentration tested (% inhibition), MAGL): 81.9%

CCCc1cc(O)c2c(c1)OC(C)(C)[C@@H]1CCC(C)=C[C@@H]21 [THCV, Tetrahydrocannabivarin]
pro-apoptotic effect (chemioluminescence, caspase 3/7 release) [9]: apotosis levels over that of the control | Effect at GPR55 [5]: Antagonist (at low concentrations) | IC50 ([6]; Homo sapiens): 6.5 µM

CCCc1cc2c(c(O)c1C(=O)O)[C@@H]1C=C(C)CC[C@H]1C(C)(C)O2 [THCVA, Tetrahydrocannabivarinic acid]
pro-apoptotic effect (chemioluminescence, caspase 3/7 release) [9]: highest pro-apoptotic effects | pro-apoptotic effect (chemioluminescence, caspase 3/7 release) [10]: highest pro-apoptotic effect

Cn1nnc2c(C(N)=O)ncn2c1=O [TMZ, temazolamide, reference compound]
Tumour volume (increase from day 1) [11]: 4.1 | Cell Viability (%) [12]: 82%

Cc1c(C(=O)c2cccc3ccccc23)c2cccc3c2n1[C@H](CN1CCOCC1)CO3 [WIN-55,212-2]
inhibition of cell growth [13]: inhibition of cell growth
